For test [1], the target named is His-GST-TVMV-hRIPK1(1-324) (Homo sapiens (Human), UniProt Q13546). The test can be described thus: RIPK1 HTRF Binding Assay. As to conditions: HTRF binding, 1 h at rt; read-out: RIPK1 (IC50). Put shortly: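 HTRF probe-displacement binding: 1 nM His-GST-TVMV-hRIPK1(1-324) (baculovirus construct), 90.6 nM probe, 0.2 nM anti-GST-Tb in 20 mM HEPES, 10 mM MgCl2, 0.015% Brij-35, 4 mM DTT, 0.05 mg/mL BSA. Incubated 1 h at rt; FRET 520/495 nm ratio, inhibition relative to DMSO-only wells.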
His-GST-TVMV-hRIPK1(1-324), sequence (Q13546 1-324): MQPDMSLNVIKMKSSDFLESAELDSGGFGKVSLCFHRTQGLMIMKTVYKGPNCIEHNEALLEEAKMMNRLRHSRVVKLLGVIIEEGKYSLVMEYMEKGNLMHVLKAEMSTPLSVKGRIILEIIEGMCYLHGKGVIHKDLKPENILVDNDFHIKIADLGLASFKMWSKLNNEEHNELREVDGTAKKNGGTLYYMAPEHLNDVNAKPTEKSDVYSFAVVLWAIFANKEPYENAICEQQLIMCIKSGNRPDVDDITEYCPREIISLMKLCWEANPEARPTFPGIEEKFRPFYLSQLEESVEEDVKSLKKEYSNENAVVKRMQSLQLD
For orientation: Time-resolved FRET reads energy transfer from a long-lived donor to a nearby acceptor.

Test [2] deals with MLKL phosphorylation in HT29-L23 human colorectal adenocarcinoma cells. The test can be described thus: MLKL Phosphorylation High-Content Assay. The following applies: necroptosis induced with TNFα, SMAC mimetic and Z-VAD, 6 h, read-out: pMLKL (IC50). The format is cell-based. Summed up:
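HT29-L23 cells pretreated 30 min at 37 °C with compound (6.25 to 0.106 μM final), then necroptosis induced with TNFα 35 ng/mL, SMAC mimetic 700 nM and Z-VAD 140 nM for 6 h. Fixed cells immunostained for MLKL pS358 and imaged; IC50 and Ymax from 4-parameter logistic fit.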

Structures can show the parent of a compound that is named as a salt. Where two headings read alike, the source gives them in different places. Some results are limits rather than exact numbers.

The IC50 is the concentration at which inhibition is half-maximal.

For the compound `[2H]C([2H])([2H])Oc1ncc(-c2ccc3nc(NC(C)=O)cn3n2)cc1C(=O)NC(C)c1ccccc1OC(F)(F)F` (stereo not drawn) [Example 57, 5-{2-acetamidoimidazo[1,2-b]pyridazin-6-yl}-2-(D3)methoxy-N-{1-[2-(trifluoromethoxy)phenyl]eth-yl}pyridine-3-carboxamide], the values for the IC50 in test [1] and in test [2] were 10 nM and 25 nM, respectively.
For `CC(=O)Nc1cn2nc(-c3cnc(C)c(C(=O)N4CCCC(C(O)c5ccc(F)cc5)C4)c3)ccc2n1` (single isomer, unassigned) [Example 354, N-[6-(5-{3-[(4-fluorophenyl)(hydroxy)methyl]piperidine-1-carbonyl}-6-methylpyridin-3-yl)imidazo[1,2-b]pyridazin-2-yl]acetamide] the same measures were 212 nM and 223 nM.
For `CC(=O)Nc1cn2nc(-c3cnc(C)c(C(=O)NCc4ccccc4OCC4CC4)c3)ccc2n1` [Example 227, N-{[2-(cyclopropylmethoxy)phenyl]methyl}-5-{2-acetamidoimidazo [1,2-b]pyridazin-6-yl}-2-methylpyridine-3-carboxamide], the figures for the IC50 in test [1] and in test [2] (Homo sapiens) were 8 nM and 21 nM, respectively.
For `CC(=O)Nc1cn2nc(-c3cnc(C)c(C(=O)NC(C)c4ccccc4OC(F)(F)F)c3)ccc2n1` (stereo not drawn) [Example 202, 5-{2-acetamidoimidazo[1,2-b]pyridazin-6-yl}-2-methyl-N-{1-[2-(trifluoromethoxy)phenyl]ethyl}pyridine-3-carboxamide], the IC50 amounted to 32 nM in test [1] and 34 nM in test [2].
For `COc1ncc(-c2ccc3nc(NC(C)=O)cn3n2)cc1C(=O)NC(C)c1cc(F)cc(F)c1OCC1CC1` (stereo not drawn) [Example 130, N-{1-[2-(cyclopropylmethoxy)-3,5-difluorophenyl]ethyl}-5-{2-acetamidoimidazo[1,2-b]pyridazin-6-yl}-2-methoxypyridine-3-carboxamide] the same measures were 4 nM and 3 nM.
As for `Cc1ncc(-c2ccc3nc(NC(=O)CN4CC(F)(F)C4)cn3n2)cc1C(=O)N[C@H](C)c1cc(OC(F)(F)F)ccc1F` [Example 335, 5-{2-[2-(3,3-difluoroazetidin-1-yl)acetamido]-imidazo[1,2-b]pyridazin-6-yl}-N-[(1R)-1-[2-fluoro-5-(trifluoromethoxy)-phenyl]ethyl]-2-methylpyridine-3-carboxamide], the IC50 in test [1] came to 28 nM; in test [2] (Homo sapiens), 9 nM.
Taken in the same sequence, the figures for `CC(=O)Nc1cn2nc(-c3cc(C(=O)NCc4cc(F)ccc4OCC(F)(F)F)c(C)nc3C)ccc2n1` [Example 72, 5-{2-acetamidoimidazo[1,2-b]pyridazin-6-yl}-N-{[5-fluoro-2-(2,2,2-trifluoroethoxy)phenyl]methyl}-2,6-dimethylpyridine-3-carboxamide, TFA] were 17 nM and 30 nM.
Taken in the same sequence, the figures for `COc1ncc(-c2ccc3nc(NC(=O)C(C)C)cn3n2)cc1C(=O)NCc1cc(F)cc(F)c1OC1CCOCC1` [Example 265, N-{[3,5-difluoro-2-(oxan-4-yloxy)phenyl]methyl}-2-methoxy-5-[2-(2-methylpropanamido)imidazo[1,2-b]pyridazin-6-yl]pyridine-3-carboxamide] were 3 nM and 7 nM.
With `CC(=O)Nc1cn2nc(-c3cc(C(=O)NCCC(C)c4ccccc4)cnc3C)ccc2n1` (stereo not drawn) [Example 231, 5-{2-acetamidoimidazo[1,2-b]pyridazin-6-yl}-6-methyl-N-(3-phenylbutyl)pyridine-3-carboxamide], the IC50 is 6 nM in test [1] and 60 nM in test [2].
`COc1ncc(-c2ccc3nc(NC(C)=O)cn3n2)cc1C(=O)NCc1cc(F)cc(F)c1OC1CCOC(C)C1` (stereo not drawn) [Example 96, N-({3,5-difluoro-2-[(2-methyloxan-4-yl)oxy]phenyl}methyl)-5-{2-acetamidoimidazo[1,2-b]pyridazin-6-yl}-2-methoxypyridine-3-carboxamide]: the IC50 was determined as 10 nM in test [1] and 25 nM in test [2] (Homo sapiens).
Turning to `[2H]C([2H])([2H])Oc1ncc(-c2ccc3nc(NC(C)=O)cn3n2)cc1C(=O)NC(C)c1ccccc1OC(F)(F)F` (stereo not drawn) [Example 54, 5-{2-acetamidoimidazo[1,2-b]pyridazin-6-yl}-2-(D3)methoxy-N-{1-[2-(trifluoromethoxy)phenyl]eth-yl}pyridine-3-carboxamide], the IC50 in test [1] is 5 nM; in test [2] (Homo sapiens), 24 nM.
Taken in the same sequence, the figures for `CC(=O)Nc1cn2nc(-c3cc(C(=O)NCc4ccccc4OCC4CCCC4)c(C)nc3C)ccc2n1` [Example 85, N-{[2-(cyclopentylmethoxy)phenyl]methyl}-5-{2-acetamidoimidazo[1,2-b]pyridazin-6-yl}-2,6-dimethylpyridine-3-carboxamide] were 4 nM and 12 nM.
As for `CC(=O)Nc1cn2nc(-c3cc(C(=O)NCc4cc(F)cc(F)c4OC4CCOCC4)c(C)nc3C)ccc2n1` [Example 78, N-{[3,5-difluoro-2-(oxan-4-yloxy)phenyl]methyl}-5-{2-acetamidoimidazo[1,2-b]pyridazin-6-yl}-2,6-dimethylpyridine-3-carboxamide], the IC50 in test [1] came out at 16 nM; in test [2] (Homo sapiens), 21 nM.
For `[2H]C([2H])([2H])Oc1nc(C)c(-c2ccc3nc(NC(C)=O)cn3n2)cc1C(=O)NCc1c(F)cccc1OCC(F)(F)F` [Example 173, 5-{2-acetemidoimidazo[1,2-b]pyridazin-6-yl}-N-{[2-fluoro-6-(2,2,2-trifluoroethoxy)phenyl]methyl}-2-(deutero)methoxy-6-methylpyridine-3-carboxamide] the same measures were 3 nM and 2 nM.
For `CC(=O)Nc1cn2nc(-c3ccc(C)c(C(=O)NCc4cc(F)ccc4-c4cnn(C)c4)c3)ccc2n1` [Example 403, 5-{2-acetamidoimidazo [1,2-b]pyridazin-6-yl}-N-{[5-fluoro-2-(1-methyl-1H-pyrazol-4-yl)phenyl]methyl}-2-methylbenzamide], the values for the IC50 in test [1] and in test [2] (Homo sapiens) were 67 nM and 262 nM, respectively.
For `CC(=O)Nc1cn2nc(-c3cnc(C)c(C(=O)NCC[C@H](O)c4ccc(Cl)cc4)c3)ccc2n1` [Example 216, N-[(3S)-3-(4-chlorophenyl)-3-hydroxypropyl]-5-{2-acetamidoimidazo[1,2-b]pyridazin-6-yl}-2-methylpyridine-3-carboxamide] the same measures were 66 nM and 397 nM.
Taken in the same sequence, the figures for `CC(=O)Nc1cn2nc(-c3cc(F)c(C)c(C(=O)NCc4cc(OC(F)(F)F)ccc4F)c3)ccc2n1` [Example 359, 5-{2-acetamidoimidazo [1,2-b]pyridazin-6-yl}-3-fluoro-N-{[2-fluoro-5-(trifluoromethoxy)phenyl]methyl}-2-methylbenzamide] were 78 nM and 5 nM.
For `CC(=O)OCC(=O)Nc1cn2nc(-c3cc(C(=O)NCc4cc(OC(F)(F)F)ccc4F)c(C)nc3C)ccc2n1` [Example 327, ({6-[5-({[2-fluoro-5-(trifluoromethoxy)phenyl]methyl}carbamoyl)-2,6-dimethylpyridin-3-yl]imidazo[1,2-b]pyridazin-2-yl}carbamoyl)methyl acetate] the same measures were 5 nM and 25 nM.
For `CC(=O)Nc1cn2nc(-c3cc(C(=O)NCc4cccc(OCC(F)(F)F)c4)c(C)nc3C)ccc2n1` [Example 73, 5-{2-acetamidoimidazo[1,2-b]pyridazin-6-yl}-2,6-dimethyl-N-{[3-(2,2,2-trifluoroethoxy)phenyl]methyl}pyridine-3-carboxamide], the IC50 in test [1] came out at 57 nM; in test [2] (Homo sapiens), 82 nM.
Taken in the same sequence, the figures for `CC(=O)Nc1cn2nc(-c3cc(C(=O)N[C@H](C)c4cc(C(F)(F)F)ccc4F)c(C)nc3C)ccc2n1` [Example 69, 5-{2-acetamidoimidazo[1,2-b]pyridazin-6-yl}-N-[(1R)-1-[2-fluoro-5-(trifluoromethyl)phenyl]ethyl]-2,6-dimethylpyridine-3-carboxamide] were 15 nM and 23 nM.
On to `O=C(CN1CCC(F)(F)CC1)Nc1cn2nc(-c3cccc(C(=O)NCc4cc(OC(F)(F)F)ccc4F)c3F)ccc2n1` [Example 427, 3-{2-[2-(4,4-difluoropiperidin-1-yl)acetamido]imidazo [1,2-b]pyridazin-6-yl}-2-fluoro-N-{[2-fluoro-5-(trifluoromethoxy)phenyl]methyl} benzamide], for which the IC50 was determined as 7 nM in test [1] and 3 nM in test [2] (Homo sapiens).
For `CC(=O)Nc1cn2nc(-c3cc(C(=O)NCC[C@H](O)c4ccc(Cl)cc4)c(C)nc3C)ccc2n1` [Example 82, N-[(3S)-3-(4-chlorophenyl)-3-hydroxypropyl]-5-{2-acetamidoimidazo[1,2-b]pyridazin-6-yl}-2,6-dimethylpyridine-3-carboxamide] the same measures were 21 nM and 18 nM.
For `CC(=O)Nc1cn2nc(-c3cnc(C)c(C(=O)NCc4cc(F)cc(OC(F)(F)F)c4)c3)ccc2n1` [Example 207, 5-{2-acetamidoimidazo[1,2-b]pyridazin-6-yl}-N-{[3-fluoro-5-(trifluoromethoxy)phenyl]methyl}-2-methylpyridine-3-carboxamide, TFA] the same measures were 29 nM and 92 nM.
On to `COc1nc(C)c(-c2ccc3nc(NC(C)=O)cn3n2)cc1C(=O)NC(C)c1ccccc1OC(F)(F)F` (stereo not drawn) [Example 291, 5-{2-acetamidoimidazo[1,2-b]pyridazin-6-yl}-2-methoxy-6-methyl-N-{1-[2-(trifluoromethoxy)phenyl]ethyl}pyridine-3-carboxamide], for which the values for the IC50 in test [1] and in test [2] were > 5000 nM and > 6250 nM, respectively.

For the origin of these results see patent US11440913B2, “Aminoimidazopyridazines as kinase inhibitors” (BRISTOL-MYERS SQUIBB COMPANY, priority 2017, dated 2022).
